How the values were obtained:
[1] = test system: chickweed; experiment: Test C preemergence/postemergence greenhouse plant response rating 0 to 100; format: in vivo, Stellaria media; details: POSTEMERGENCE; for Plant response rating, Chickweed: 0 to 100 scale
Method in brief: (§1)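 Compounds in non-phytotoxic solvent applied preemergence to sandy loam one day after planting, postemergence at the 1–4 leaf stage, or to ~2.5 cm floodwater over silt loam.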

[2] = test system: cotton; experiment: as above; format: in vivo, Gossypium hirsutum; details: POSTEMERGENCE; for Plant response rating, Cotton: 0 to 100 scale
Method in brief: as §1

[3] = test system: giant foxtail; experiment: as above; format: in vivo, Setaria faberii; details: POSTEMERGENCE; for Plant response rating, Giant foxtail: 0 to 100 scale
Method in brief: as §1

[4] = test system: corn; experiment: as above; format: in vivo, Zea mays; details: POSTEMERGENCE; for Plant response rating, Corn: 0 to 100 scale
Method in brief: as §1

[5] = test system: cocklebur; experiment: Test B preemergence/postemergence greenhouse plant response rating 0 to 10; format: in vivo, Xanthium pensylvanicum; details: 0 to 10 scale
Method in brief: (§2)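 Test chemicals were sprayed onto freshly planted seed and, concurrently, onto young plants between the one and four leaf stage. After a twelve- to sixteen-day greenhouse period, each species was visually compared with untreated controls.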

[6] = test system: sugar beet; experiment: Test C preemergence/postemergence greenhouse plant response rating 0 to 100; format: in vivo, Beta vulgaris; details: POSTEMERGENCE; for Plant response rating, Sugar beet: 0 to 100 scale
Method in brief: as §1

[7] = test system: pigweed; experiment: as above; format: in vivo, Amaranthusretroflexus; details: POSTEMERGENCE; for Plant response rating Pigweed: 0 to 100 scale
Method in brief: as §1

[8] = test system: rice; experiment: Test B preemergence/postemergence greenhouse plant response rating 0 to 10; format: in vivo, Oryza sativa; details: 0 to 10 scale
Method in brief: as §2

[9] = test system: wild buckwheat; experiment: as above; format: in vivo, Polygonum convolvulus; details: 0 to 10 scale
Method in brief: as §2

[10] = test system: duck salad; experiment: Test C flood test plant response rating 0 to 100; format: in vivo, Heteranthera limosa; details: for Plant response rating (0 to 100), Duck salad: under POSTEMERGENCE head (flood test species); for Plant response rating Duck salad: flood test species listed under POSTEMERGENCE, 0 to 100 scale
Method in brief: as §1

[11] = test system: bedstraw; experiment: Test C preemergence/postemergence greenhouse plant response rating 0 to 100; format: in vivo, Galium aparine; details: POSTEMERGENCE; for Plant response rating, Bedstraw: 0 to 100 scale
Method in brief: as §1

[12] = test system: soybean; experiment: Test B preemergence/postemergence greenhouse plant response rating 0 to 10; format: in vivo, Glycine max; details: 0 to 10 scale
Method in brief: as §2

[13] = test system: blackgrass; experiment: Test C preemergence/postemergence greenhouse plant response rating 0 to 100; format: in vivo, Alopecurus myosuroides; details: POSTEMERGENCE; for Plant response rating, Blackgrass: 0 to 100 scale
Method in brief: as §1

[14] = test system: umbrella sedge; experiment: Test C flood test plant response rating 0 to 100; format: in vivo, Cyperus difformis; details: for Plant response rating (0 to 100), Umbrella sedge: under POSTEMERGENCE head (flood test species); for Plant response rating Umbrella sedge: flood test species listed under POSTEMERGENCE, 0 to 100 scale
Method in brief: as §1

[15] = test system: purple nutsedge; experiment: Test B preemergence/postemergence greenhouse plant response rating 0 to 10; format: in vivo, Cyperus rotundus; details: 0 to 10 scale
Method in brief: as §2

[16] = test system: rice; experiment: Test C flood test plant response rating 0 to 100; format: in vivo, Oryza sativa; details: for Plant response rating (0 to 100), Rice Japonica: under POSTEMERGENCE head (flood test species); for Plant response rating Rice Japonica: flood test species listed under POSTEMERGENCE, 0 to 100 scale
Method in brief: as §1

[17] = test system: velvetleaf; experiment: Test C preemergence/postemergence greenhouse plant response rating 0 to 100; format: in vivo, Abutilon theophrasti; details: POSTEMERGENCE; for Plant response rating, Velvetleaf: 0 to 100 scale
Method in brief: as §1

## C=CCN1C(=O)COc2cc(F)c(-c3nn4c(c3Br)CCCC4)cc21 [Compound 41]
[1]; 62 g/ha
  Plant response rating, Chickweed: 100
[1]; 125 g/ha
  Plant response rating, Chickweed: 100
[1]; Rate 16 g/ha
  Plant response rating (0 to 100), Chickweed: 90
[1]; Rate 31 g/ha
  Plant response rating (0 to 100), Chickweed: 90
[2]; 62 g/ha
  Plant response rating, Cotton: 100
[2]; 125 g/ha
  Plant response rating, Cotton: 100
[2]; Rate 16 g/ha
  Plant response rating (0 to 100), Cotton: 100
[2]; Rate 31 g/ha
  Plant response rating (0 to 100), Cotton: 100
[3]; 62 g/ha
  Plant response rating, Giant foxtail: 30
[3]; 125 g/ha
  Plant response rating, Giant foxtail: 50
[3]; Rate 16 g/ha
  Plant response rating (0 to 100), Giant foxtail: 20
[3]; Rate 31 g/ha
  Plant response rating (0 to 100), Giant foxtail: 30
[4]; 62 g/ha
  Plant response rating, Corn: 40
[4]; 125 g/ha
  Plant response rating, Corn: 50
[4]; Rate 16 g/ha
  Plant response rating (0 to 100), Corn: 40
[4]; Rate 31 g/ha
  Plant response rating (0 to 100), Corn: 40
[5]; POSTEMERGENCE, Rate 50 g/ha
  Plant response rating, Cocklebur: 10
[5]; POSTEMERGENCE, Rate 200 g/ha
  Plant response rating, Cocklebur: 10
[5]; PREEMERGENCE, Rate 50 g/ha
  Plant response rating, Cocklebur: 2
[5]; Rate 200 g/ha, PREEMERGENCE
  Plant response rating, Cocklebur: 5
[6]; 62 g/ha
  Plant response rating, Sugar beet: 100
[6]; 125 g/ha
  Plant response rating, Sugar beet: 100
[6]; Rate 16 g/ha
  Plant response rating (0 to 100), Sugar beet: 100
[6]; Rate 31 g/ha
  Plant response rating (0 to 100), Sugar beet: 100
[7]; 62 g/ha
  Plant response rating Pigweed: 100
[7]; 125 g/ha
  Plant response rating Pigweed: 100
[7]; Rate 16 g/ha
  Plant response rating (0 to 100), Pigweed: 90
[7]; Rate 31 g/ha
  Plant response rating (0 to 100), Pigweed: 100
[8]; POSTEMERGENCE, Rate 50 g/ha
  Plant response rating, Rice: 6
[8]; PREEMERGENCE, Rate 50 g/ha
  Plant response rating, Rice: 0
[8]; Rate 200 g/ha, POSTEMERGENCE
  Plant response rating, Rice: 7
[8]; Rate 200 g/ha, PREEMERGENCE
  Plant response rating, Rice: 0
[9]; POSTEMERGENCE, Rate 50 g/ha
  Plant response rating, Wild buckwheat: 10
[9]; PREEMERGENCE, Rate 50 g/ha
  Plant response rating, Wild buckwheat: 10
[9]; Rate 200 g/ha, POSTEMERGENCE
  Plant response rating, Wild buckwheat: 10
[9]; Rate 200 g/ha, PREEMERGENCE
  Plant response rating, Wild buckwheat: 10
[10]; Rate 16 g/ha
  Plant response rating (0 to 100), Duck salad: 0
[10]; Rate 31 g/ha
  Plant response rating (0 to 100), Duck salad: 10
[10]; 62 g/ha
  Plant response rating Duck salad: 30
[10]; 125 g/ha
  Plant response rating Duck salad: 30
[11]; 62 g/ha
  Plant response rating, Bedstraw: 80
[11]; 125 g/ha
  Plant response rating, Bedstraw: 90
[11]; Rate 16 g/ha
  Plant response rating (0 to 100), Bedstraw: 70
[11]; Rate 31 g/ha
  Plant response rating (0 to 100), Bedstraw: 70
[12]; POSTEMERGENCE, Rate 50 g/ha
  Plant response rating, Soybean: 9
[12]; PREEMERGENCE, Rate 50 g/ha
  Plant response rating, Soybean: 0
[12]; Rate 200 g/ha, POSTEMERGENCE
  Plant response rating, Soybean: 10
[12]; Rate 200 g/ha, PREEMERGENCE
  Plant response rating, Soybean: 0
[13]; 62 g/ha
  Plant response rating, Blackgrass: 50
[13]; 125 g/ha
  Plant response rating, Blackgrass: 60
[13]; Rate 16 g/ha
  Plant response rating (0 to 100), Blackgrass: 40
[13]; Rate 31 g/ha
  Plant response rating (0 to 100), Blackgrass: 40
[14]; Rate 16 g/ha
  Plant response rating (0 to 100), Umbrella sedge: 60
[14]; Rate 31 g/ha
  Plant response rating (0 to 100), Umbrella sedge: 60
[14]; 62 g/ha
  Plant response rating Umbrella sedge: 80
[14]; 125 g/ha
  Plant response rating Umbrella sedge: 90
[15]; POSTEMERGENCE, Rate 50 g/ha
  Plant response rating, Nutsedge: 4
[15]; PREEMERGENCE, Rate 50 g/ha
  Plant response rating, Nutsedge: 0
[15]; Rate 200 g/ha, POSTEMERGENCE
  Plant response rating, Nutsedge: 4
[15]; Rate 200 g/ha, PREEMERGENCE
  Plant response rating, Nutsedge: 0
[16]; Rate 16 g/ha
  Plant response rating (0 to 100), Rice Japonica: 45
[16]; Rate 31 g/ha
  Plant response rating (0 to 100), Rice Japonica: 65
[16]; 62 g/ha
  Plant response rating Rice Japonica: 80
[16]; 125 g/ha
  Plant response rating Rice Japonica: 85
[17]; 62 g/ha
  Plant response rating, Velvetleaf: 100
[17]; 125 g/ha
  Plant response rating, Velvetleaf: 100
[17]; Rate 16 g/ha
  Plant response rating (0 to 100), Velvetleaf: 100
[17]; Rate 31 g/ha
  Plant response rating (0 to 100), Velvetleaf: 100

From US6358885B1, “Substituted phenylheterocyclic herbicides” (Mississippi State University, priority 1992, dated 2002)
